Measurements: US20220289794A1, “SYNTHETIC ANTIMICROBIAL PEPTIDES” (priority 2019, published 2022)
Values after ≈ are worked out from the molar mass of the structure shown. Where two headings read alike, the source gives them in different places.

Key:
[1] = tested on: Bacillus cereus (ATCC-13061); assay: microbe, parasite or virus in culture; conditions: ATCC13061
[2] = tested on: MRSA; assay: microbe, parasite or virus in culture; conditions: Staphylococcus aureus
[3] = tested on: Pseudomonas aeruginosa (PSA, ATCC 27883); assay: Synergy checkerboard assay (FIC index); format: cell-based; conditions: Pseudomonas aeruginosa (ATCC 27883), antibiotic alone
[4] = tested on: Enterococcus faecalis ATCC 51575; assay: microbe, parasite or virus in culture; conditions: ATCC51575
[5] = tested on: Methicillin-resistant Staphylococcus aureus MRSA (ATCC BAA-1556); assay: microbe, parasite or virus in culture; conditions: ATCCBAA1556|MRSA, 24 h
[6] = tested on: Enterococcus faecalis ATCC 29212; assay: microbe, parasite or virus in culture; conditions: ATCC29212
[7] = tested on: Staphylococcus aureus ATCC 29213; assay: microbe, parasite or virus in culture; conditions: ATCC29213
[8] = tested on: KPC; assay: microbe, parasite or virus in culture; conditions: Klebsiella pneumoniae, ATCCBAA1705, read-out: MIC Klebsiella pneumoniae (ATCC BAA-1705)
[9] = tested on: PSA; assay: microbe, parasite or virus in culture; conditions: Pseudomonas aeruginosa, ATCC27883, read-out: MIC Pseudomonas aeruginosa (ATCC 27883)
[10] = tested on: Escherichia coli (ATCC 25922); assay: microbe, parasite or virus in culture; conditions: ATCC25922, read-out: E. coli (ATCC 25922) MIC
[11] = tested on: Enterococcus faecium ATCC 700221; assay: microbe, parasite or virus in culture; conditions: ATCC700221
[12] = tested on: E. coli; assay: microbe, parasite or virus in culture; conditions: Escherichia coli, ATCC25922, read-out: MIC Escherichia coli (ATCC 25922)
[13] = tested on: Enterococcus faecium ATCC 27270; assay: microbe, parasite or virus in culture; conditions: ATCC27270
[14] = tested on: Pseudomonas aeruginosa (ATCC 27883); assay: microbe, parasite or virus in culture; conditions: ATCC27883, read-out: PSA (ATCC 27883 MIC)
[15] = tested on: Bacillus subtilis (ATCC-6633); assay: microbe, parasite or virus in culture; conditions: ATCC6633
[16] = tested on: Escherichia coli (E. Coli, ATCC 25922); conditions: Escherichia coli (ATCC 25922); antibiotic alone
[17] = tested on: Streptococcus pneumoniae ATCC 51938; assay: microbe, parasite or virus in culture; conditions: ATCC51938
[18] = tested on: Pseudomonas aeruginosa (PSA, ATCC 27883); assay: microbe, parasite or virus in culture; conditions: ATCC27883, 24 h
[19] = tested on: Streptococcus pneumoniae ATCC 49619; assay: microbe, parasite or virus in culture; conditions: ATCC49619
[20] = tested on: Escherichia coli (E. Coli, ATCC 25922); assay: microbe, parasite or virus in culture; conditions: ATCC25922, 24 h

## C[C@@H](O)[C@H]1C(=O)N2C(C(=O)O)=C(S[C@@H]3CN[C@H](C(=O)N(C)C)C3)[C@H](C)[C@H]12 [Meropenem]
[1]
  MIC: 4 µg/mL (≈ 10.4 µM)
[2]; ATCCBAA1556 / MRSA, read-out: MIC MRSA (ATCC BAA-1556)
  MIC: 4 µg/mL (≈ 10.4 µM)
[2]; MRSA
  MIC: 2 µg/mL (≈ 5.22 µM)
[3]
  MIC of antibiotic: 1 µg/mL
[3]; Table 26
  MIC of antibiotic: 1 µg/mL
[3]; Table 27
  antibiotic MIC: 1 µg/mL
[4]
  MIC: 8 µg/mL (≈ 20.9 µM)
[5]; read-out: MRSA (ATCC BAA-1556) MIC, Table 29, [R6W4] (IFX-318), antibiotics alone and PHY-MIX (1:1 w/w)
  MIC: 2 µg/mL (≈ 5.22 µM)
[5]; read-out: MRSA (ATCC BAA-1556) MIC, Table 30, [R5W4K] (IFX-315), antibiotics alone and PHY-MIX (1:1 w/w)
  MIC: 2 µg/mL (≈ 5.22 µM)
[5]; read-out: MRSA (ATCC BAA-1556) MIC, Table 31, [R5W4] (IFX-301), antibiotics alone and PHY-MIX (1:1 w/w)
  MIC: 2 µg/mL (≈ 5.22 µM)
[5]; read-out: MRSA (ATCC BAA-1556) MIC, Table 32, meropenem, IFX-315, their conjugate and Phy-Mix 1:1
  MIC: 2 µg/mL (≈ 5.22 µM)
[6]
  MIC: 2 µg/mL (≈ 5.22 µM)
[7]
  MIC: 0.25 µg/mL (≈ 0.652 µM)
[8]
  MIC: 8 µg/mL (≈ 20.9 µM)
[9]
  MIC: 0.5 µg/mL (≈ 1.3 µM)
[10]
  MIC: 1 µg/mL (≈ 2.61 µM)
[11]
  MIC: 64 µg/mL (≈ 167 µM)
[12]
  MIC: 0.125 µg/mL (≈ 0.326 µM)
[13]
  MIC: 0.5 µg/mL (≈ 1.3 µM)
[14]
  MIC: 1 µg/mL (≈ 2.61 µM)
[15]
  MIC: 0.25 µg/mL (≈ 0.652 µM)
[16]
  MIC of antibiotic: 1 µg/mL
[17]
  MIC: 0.25 µg/mL (≈ 0.652 µM)
[18]; read-out: Pseudomonas aeruginosa (ATCC 27883) MIC, Table 28, IFX-031, antibiotics alone and PHY-MIX (1:1 w/w)
  MIC: 1 µg/mL (≈ 2.61 µM)
[18]; read-out: Pseudomonas aeruginosa (ATCC 27883) MIC, Table 29, [R6W4] (IFX-318), antibiotics alone and PHY-MIX (1:1 w/w)
  MIC: 1 µg/mL (≈ 2.61 µM)
[18]; read-out: Pseudomonas aeruginosa (ATCC 27883) MIC, Table 30, [R5W4K] (IFX-315), antibiotics alone and PHY-MIX (1:1 w/w)
  MIC: 1 µg/mL (≈ 2.61 µM)
[18]; read-out: Pseudomonas aeruginosa (ATCC 27883) MIC, Table 31, [R5W4] (IFX-301), antibiotics alone and PHY-MIX (1:1 w/w)
  MIC: 1 µg/mL (≈ 2.61 µM)
[18]; read-out: Pseudomonas aeruginosa (ATCC 27883) MIC, Table 32, meropenem, IFX-315, their conjugate and Phy-Mix 1:1
  MIC: 1 µg/mL (≈ 2.61 µM)
[19]
  MIC: 0.25 µg/mL (≈ 0.652 µM)
[20]; read-out: Escherichia coli (ATCC 25922) MIC, Table 29, [R6W4] (IFX-318), antibiotics alone and PHY-MIX (1:1 w/w)
  MIC: 1 µg/mL (≈ 2.61 µM)
[20]; read-out: Escherichia coli (ATCC 25922) MIC, Table 30, [R5W4K] (IFX-315), antibiotics alone and PHY-MIX (1:1 w/w)
  MIC: 1 µg/mL (≈ 2.61 µM)
[20]; read-out: Escherichia coli (ATCC 25922) MIC, Table 31, [R5W4] (IFX-301), antibiotics alone and PHY-MIX (1:1 w/w)
  MIC: 1 µg/mL (≈ 2.61 µM)
[20]; read-out: Escherichia coli (ATCC 25922) MIC, Table 32, meropenem, IFX-315, their conjugate and Phy-Mix 1:1
  MIC: 1 µg/mL (≈ 2.61 µM)
